Test results: patent publication US9839642B2, “Beta-tetrazolyl-propionic acids as metallo-beta-lactamase inhibitors” (priority 2014, dated 2017)

Experiments:
IMP-1 = IMP-1 (Serratia marcescens, UniProt P52699); assay: Enzyme activity: determination of IC50, fluorescence assay with CCF2-FA substrate; type: biochemical; settings: enzyme 2 pM, CCF2-FA 1.25 μM, 2 hours at 25° C.; read-out: IMP1 IC50
Outline: (§1)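 Enzyme at 1 pM (NDM-1), 2 pM (IMP-1) or 30 pM (VIM-1) was incubated with inhibitor (20 μM to 0.00063 μM) and 1.25 μM CCF2-FA in 100 mM KH2PO4 pH 7, 0.005% Tween-20, 10 μM ZnSO4 for 2 hours at 25° C. Fluorescence was read at ex 405/em 460 nm; IC50 from 4-parameter fit.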

NDM-1 = NDM-1 (Klebsiella pneumoniae, UniProt C7C422); assay: as above; type: biochemical; settings: enzyme 1 pM, CCF2-FA 1.25 μM, 2 hours at 25° C.; read-out: NDM1 IC50
NDM-1, sequence (C7C422 29-270, looked up, species assumed): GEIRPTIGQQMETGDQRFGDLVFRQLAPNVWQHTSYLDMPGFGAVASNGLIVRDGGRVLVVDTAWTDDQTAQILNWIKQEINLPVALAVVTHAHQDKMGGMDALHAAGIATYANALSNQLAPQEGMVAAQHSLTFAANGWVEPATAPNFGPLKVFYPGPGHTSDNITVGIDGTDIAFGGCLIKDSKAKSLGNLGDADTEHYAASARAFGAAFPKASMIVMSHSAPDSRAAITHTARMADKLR
Outline: as §1

VIM-1 = VIM-1 (Pseudomonas aeruginosa, UniProt A0A0F7KYQ8); assay: as above; type: biochemical; settings: enzyme 30 pM, CCF2-FA 1.25 μM, 2 hours at 25° C.; read-out: VIM1 IC50
Outline: as §1

[1] = test system: Escherichia coli expressing NDM-1 (CLB30005); assay: Antibiotic potentiation activity: synergistic concentration (MITC95) with imipenem, growth by OD600; type: cell-based; settings: 95% inhibition of bacterial growth, strain CLB30005
Outline: (§2)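 Colonies from overnight agar plates (35 °C) were suspended in saline and diluted 1:100 into 1.1× CAMHB. Inhibitor (final 200 μM to 0.195 μM) was combined with imipenem at 1 or 4 μg/ml, incubated 22–24 h at 35 °C, and absorbance read; MITC95 is the lowest inhibitor concentration giving 95% growth inhibition.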

[2] = test system: Klebsiella pneumoniae expressing VIM-1 (IHMA599644); assay: as above; type: cell-based; settings: 95% inhibition of bacterial growth, strain IHMA599644
Outline: as §2

[3] = test system: Serratia marcescens expressing IMP-1 (CL5741); assay: as above; type: cell-based; settings: 95% inhibition of bacterial growth, strain CL5741
Outline: as §2

IMP-1, sequence (P52699 19-246, looked up, species assumed): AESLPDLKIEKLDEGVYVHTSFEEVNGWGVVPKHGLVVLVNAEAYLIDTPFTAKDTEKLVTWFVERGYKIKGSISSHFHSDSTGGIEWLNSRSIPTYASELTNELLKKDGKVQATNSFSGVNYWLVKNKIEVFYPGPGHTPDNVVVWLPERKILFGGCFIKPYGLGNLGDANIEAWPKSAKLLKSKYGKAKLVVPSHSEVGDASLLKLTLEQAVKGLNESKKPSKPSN

| SMILES | IC50 (IMP-1) | IC50 (NDM-1) | IC50 (VIM-1) | NDM1 EC30005 MITC95 [1] | VIM1 KP599644 MITC95 [2] | IMP1 SM5741 MITC95 [3] |
| --- | --- | --- | --- | --- | --- | --- |
| CCC[C@H](C(=O)O)[C@H](Cc1ccc(-c2ccc(N(C)C)nc2)cc1)c1nn[nH]n1 [Example 189, (2S)-2-[(1S)-2-{4-[6-(dimethylamino)pyridin-3-yl]phenyl}-1-(2H-tetrazol-5-yl)ethyl]pentanoic acid] | 29 nM | 13 nM | 4.3 nM | 2.3 µM | 100 µM | 7.8 µM |
| CCC[C@H](C(=O)O)[C@H](Cc1ccc(-c2cncc(N3CCN(C)CC3)c2)cc1)c1nn[nH]n1 [Example 190, (2S)-2-[(1S)-2-{4-[5-(4-methylpiperazin-1-yl)pyridin-3-yl]phenyl}-1-(2H-tetrazol-5-yl)ethyl]pentanoic acid] | 610 nM | 110 nM | 5.4 nM | 9.4 µM | 75 µM | 38 µM |
| CCC[C@H](C(=O)O)[C@H](Cc1ccc(-c2cncc(CN3CCCCC3)c2)cc1)c1nn[nH]n1 [Example 191, (2S)-2-[(1S)-2-{4-[5-(piperidin-1-ylmethyl)pyridin-3-yl]phenyl}-1-(2H-tetrazol-5-yl)ethyl]pentanoic acid] | 1100 nM | 260 nM | 8.3 nM | 25 µM | 62 µM | 62 µM |
| CCC[C@H](C(=O)O)[C@H](Cc1ccc(-c2ccc(C(C)N3CCOCC3)cc2)cc1)c1nn[nH]n1 (stereo partly drawn) [Example 192, (2S)-2-[(1S)-2-[4′-(1-morpholin-4-ylethyl)biphenyl-4-yl]-1-(2H-tetrazol-5-yl)ethyl]pentanoic acid] | 45 nM | 29 nM | 29 nM | 7.8 µM | 200 µM | 9.4 µM |
| CCC[C@H](C(=O)O)[C@H](Cc1ccc(-c2ccc3c(c2)CCC(N)C3)cc1)c1nn[nH]n1 (stereo partly drawn) [Example 193, (2S)-2-[(1S)-2-[4-(6-amino-5,6,7,8-tetrahydronaphthalen-2-yl)phenyl]-1-(2H-tetrazol-5-yl)ethyl]pentanoic acid] | 45 nM | 58 nM | 18 nM | 4.7 µM | 50 µM | 6.2 µM |
| CCC[C@H](C(=O)O)[C@H](Cc1ccc(-c2cccc(OC3CCNCC3)n2)cc1)c1nn[nH]n1 [Example 194, (2S)-2-[(1S)-2-{4-[6-(piperidin-4-yloxy)pyridin-2-yl]phenyl}-1-(2H-tetrazol-5-yl)ethyl]pentanoic acid] | 640 nM | 170 nM | 6.7 nM | 27 µM | 50 µM | 75 µM |
| CCC[C@H](C(=O)O)[C@H](Cc1ccc(-c2cccc(C3CCCNC3)c2)cc1)c1nn[nH]n1 (stereo partly drawn) [Example 195, (2S)-2-[(1S)-2-(3′-piperidin-3-ylbiphenyl-4-yl)-1-(2H-tetrazol-5-yl)ethyl]pentanoic acid] | 110 nM | 85 nM | 11 nM | 4.7 µM | 38 µM | 28 µM |
| CCC[C@H](C(=O)O)[C@H](Cc1ccc(-c2cnc(N3CCCC3)s2)cc1)c1nn[nH]n1 [Example 196, (2S)-2-[(1S)-2-[4-(2-pyrrolidin-1-yl-1,3-thiazol-5-yl)phenyl]-1-(2H-tetrazol-5-yl)ethyl]pentanoic acid] | 45 nM | 9.5 nM | 4.1 nM | 7.8 µM | 125 µM | 14 µM |
| CCC[C@H](C(=O)O)[C@H](Cc1ccc(-c2ccc(S(N)(=O)=O)cc2)cc1)c1nn[nH]n1 [Example 197, (2S)-2-[(1S)-2-(4′-sulfamoylbiphenyl-4-yl)-1-(2H-tetrazol-5-yl)ethyl]pentanoic acid] | 28 nM | 4.9 nM | 0.89 nM | 4.7 µM | 18.8 µM | 14 µM |
| CCC[C@H](C(=O)O)[C@H](Cc1ccc(-c2ccncc2)cc1)c1nn[nH]n1 [Example 198, (2S)-2-[(1S)-2-(4-pyridin-4-ylphenyl)-1-(2H-tetrazol-5-yl)ethyl]pentanoic acid] | 75 nM | 14 nM | 1.2 nM | 6.2 µM | 18.8 µM | 6.2 µM |
| CCC[C@H](C(=O)O)[C@H](Cc1ccc(-c2ccc(N)nc2)cc1)c1nn[nH]n1 [Example 200, (2S)-2-[(1S)-2-[4-(6-aminopyridin-3-yl)phenyl]-1-(2H-tetrazol-5-yl)ethyl]pentanoic acid] | 34 nM | 8.1 nM | 1.5 nM | 4.7 µM | 18.8 µM | 9.4 µM |
| CCC[C@H](C(=O)O)[C@H](Cc1ccc(-c2cccc(C(N)=O)c2)cc1)c1nn[nH]n1 [Example 201, (2S)-2-[(1S)-2-(3′-carbamoylbiphenyl-4-yl)-1-(2H-tetrazol-5-yl)ethyl]pentanoic acid] | 29 nM | 9 nM | 2.1 nM | 7.8 µM | 62 µM | 12.5 µM |
| CCC[C@H](C(=O)O)[C@H](Cc1ccc(-c2ccc(C(=O)NC)cc2)cc1)c1nn[nH]n1 [Example 202, (2S)-2-[(1S)-2-[4′-(methylcarbamoyl)biphenyl-4-yl]-1-(2H-tetrazol-5-yl)ethyl]pentanoic acid] | 22 nM | 5.9 nM | 2.3 nM | 9.4 µM | 50 µM | 4.7 µM |
| CCC[C@H](C(=O)O)[C@H](Cc1ccc(-c2ccc(N3CCOCC3)nc2)cc1)c1nn[nH]n1 [Example 203, (2S)-2-[(1S)-2-[4-(6-morpholin-4-ylpyridin-3-yl)phenyl]-1-(2H-tetrazol-5-yl)ethyl]pentanoic acid] | 60 nM | 14 nM | 4.3 nM | 9.4 µM | 200 µM | 9.4 µM |
| CCC[C@H](C(=O)O)[C@H](Cc1ccc(-c2cnc(N3CCCCC3)s2)cc1)c1nn[nH]n1 [Example 204, (2S)-2-[(1S)-2-[4-(2-piperidin-1-yl-1,3-thiazol-5-yl)phenyl]-1-(2H-tetrazol-5-yl)ethyl]pentanoic acid] | 26 nM | 3.4 nM | 2.1 nM | 3.9 µM | 100 µM | 4.7 µM |
| CCC[C@H](C(=O)O)[C@H](Cc1ccc(-c2ccccc2CN2CCCCC2)cc1)c1nn[nH]n1 [Example 205, (2S)-2-[(1S)-2-[2′-(piperidin-1-ylmethyl)biphenyl-4-yl]-1-(2H-tetrazol-5-yl)ethyl]pentanoic acid] | 63 nM | 500 nM | 360 nM | 50 µM | >200 µM | 7.8 µM |
